Laboratory results reported in ChEMBL document CHEMBL2074505, “Imaging reversal of multidrug resistance in living mice with bioluminescence: MDR1 P-glycoprotein transports coelenterazine” (Proc Natl Acad Sci U S A, 2004).

Target: ATP-dependent translocase ABCB1 (Homo sapiens, UniProt P08183)
Assay: TP_TRANSPORTER: efflux in KB 8-5-11 Rluc cells
Assay type: functional, cell-based

Chain of ATP-dependent translocase ABCB1 (P08183 whole entry): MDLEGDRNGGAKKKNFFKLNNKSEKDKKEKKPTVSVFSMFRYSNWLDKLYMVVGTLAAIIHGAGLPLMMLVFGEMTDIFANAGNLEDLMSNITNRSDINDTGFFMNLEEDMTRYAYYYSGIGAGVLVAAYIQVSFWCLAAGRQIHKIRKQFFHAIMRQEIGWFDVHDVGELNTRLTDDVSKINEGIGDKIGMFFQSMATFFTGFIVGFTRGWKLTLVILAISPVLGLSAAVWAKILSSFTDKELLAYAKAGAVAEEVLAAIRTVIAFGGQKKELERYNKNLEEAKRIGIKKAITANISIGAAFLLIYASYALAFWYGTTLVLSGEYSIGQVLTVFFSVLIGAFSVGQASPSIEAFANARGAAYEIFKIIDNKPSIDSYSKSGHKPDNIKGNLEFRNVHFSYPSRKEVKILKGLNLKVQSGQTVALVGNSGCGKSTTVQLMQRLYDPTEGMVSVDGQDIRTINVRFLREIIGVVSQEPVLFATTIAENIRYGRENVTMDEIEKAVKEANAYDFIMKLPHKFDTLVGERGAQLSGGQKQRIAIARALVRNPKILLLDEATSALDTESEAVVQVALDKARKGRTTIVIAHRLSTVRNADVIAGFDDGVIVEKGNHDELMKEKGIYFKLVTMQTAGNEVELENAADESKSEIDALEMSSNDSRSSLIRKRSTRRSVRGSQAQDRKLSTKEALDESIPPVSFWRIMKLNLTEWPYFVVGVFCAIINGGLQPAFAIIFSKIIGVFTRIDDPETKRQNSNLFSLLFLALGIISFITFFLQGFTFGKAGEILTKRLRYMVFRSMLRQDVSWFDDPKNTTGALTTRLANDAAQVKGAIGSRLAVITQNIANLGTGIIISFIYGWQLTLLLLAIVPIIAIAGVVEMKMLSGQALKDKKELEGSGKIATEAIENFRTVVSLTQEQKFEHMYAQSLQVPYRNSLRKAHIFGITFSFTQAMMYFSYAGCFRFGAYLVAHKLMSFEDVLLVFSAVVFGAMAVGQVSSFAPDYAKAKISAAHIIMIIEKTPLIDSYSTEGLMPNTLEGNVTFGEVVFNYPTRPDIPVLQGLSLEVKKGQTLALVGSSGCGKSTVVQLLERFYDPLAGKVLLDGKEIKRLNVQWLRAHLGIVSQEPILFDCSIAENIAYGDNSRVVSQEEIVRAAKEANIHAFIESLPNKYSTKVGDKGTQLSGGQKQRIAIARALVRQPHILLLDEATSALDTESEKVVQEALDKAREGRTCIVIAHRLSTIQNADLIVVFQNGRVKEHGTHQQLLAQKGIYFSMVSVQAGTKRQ

Oc1ccc(Cc2nc3c(Cc4ccccc4)nc(-c4ccc(O)cc4)cn3c2O)cc1 [COELENTERAZINE]
EC50: 0.147 µM
